Molecular target: T1, human LXRβ (Homo sapiens, UniProt P55055)
T1 construct: biotin (biotinylated); made in house; host or cells: E. coli (crude extract)
T1 sequence (P55055 1-460): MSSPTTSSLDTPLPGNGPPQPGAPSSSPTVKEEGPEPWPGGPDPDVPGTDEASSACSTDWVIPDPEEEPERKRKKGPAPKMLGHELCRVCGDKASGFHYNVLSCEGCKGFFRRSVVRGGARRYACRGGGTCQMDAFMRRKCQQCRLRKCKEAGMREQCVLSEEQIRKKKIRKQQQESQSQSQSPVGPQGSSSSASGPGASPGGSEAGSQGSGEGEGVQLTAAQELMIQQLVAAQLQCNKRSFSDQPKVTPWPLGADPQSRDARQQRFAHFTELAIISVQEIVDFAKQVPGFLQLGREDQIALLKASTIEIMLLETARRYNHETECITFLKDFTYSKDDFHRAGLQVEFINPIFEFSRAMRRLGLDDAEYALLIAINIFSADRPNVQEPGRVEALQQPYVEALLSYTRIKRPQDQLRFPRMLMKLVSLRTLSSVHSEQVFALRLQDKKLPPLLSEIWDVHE
Experiment: Ligand-binding test procedure for human LXRβ (3H T0901317 tracer, flash plates)
Settings: biotinylated hLXRβ from E. coli extract; tracer 3H T0901317
Protocol: I. Ligand-Binding Test Procedure for Human LXRβ.
Receptor source: E. coli extract from cells expressing biotinylated hLXRβ. Extract was made in a similar buffer as above, but with 50 mM TRIS.
Washed streptavidin and coated flash plates with wash buffer. Diluted receptor extract to give Bmax ˜4000 cpm and add to the wells. Wrapped the plates in aluminum foil and stored them at +4° C. over night.
Made a dilution series in DMSO of the test ligands. Made a 5 nM solution of the radioactive tracer in buffer. Mixed 250 μl diluted tracer with 5 μl of the test ligand from each concentration of the dilution series. Washed the receptor-coated flash plates. Added 200 μl per well of the ligand/radiolabel mixture to the receptor-coated flash plates. Wrapped the plates in aluminum foil and incubate at +4° C. over night.
Aspirated wells, and wash the flashed plates. Sealed the plate. Measured the remaining radioactivity in the plate.

Row | IC50 [µM] | SMILES
1 | > 1 | CCS(=O)(=O)c1cccc(Oc2ccc(-c3c(C(C)C)nc4c(C#N)cccn34)cc2)c1 [Example 124, 3-{4-[3-(ethylsulfonyl)phenoxy]phenyl}-2-(1-methylethyl)imidazo[1,2-a]pyridine-8-carbonitrile]
2 | > 1 | CC(C)NCc1nc2c(C(F)(F)F)cccn2c1-c1cccc(Oc2cccc(S(C)(=O)=O)c2)c1 [Example 136, N-{[3-{3-[3-(methylsulfonyl)phenoxy]phenyl}-8-(trifluoromethyl)imidazo[1,2-a]pyridin-2-yl]methyl}propan-2-amine]
3 | > 1 | CNCc1nc2c(C(F)(F)F)cccn2c1-c1cccc(Oc2cccc(S(C)(=O)=O)c2)c1 [Example 134, N-methyl-1-[3-{3-[3-(methylsulfonyl)phenoxy]phenyl}-8-(trifluoromethyl)imidazo[1,2-a]pyridin-2-yl]methanamine]
4 | > 1 | CN1CCN(Cc2nc3c(C(F)(F)F)cccn3c2-c2cccc(Oc3cccc(S(C)(=O)=O)c3)c2)CC1 [Example 132, 2-[(4-methylpiperazin-1-yl)methyl]-3-{3-[3-(methylsulfonyl)phenoxy]phenyl}-8-(trifluoromethyl)imidazo[1,2-a]pyridine]
5 | 0.6 | CS(=O)(=O)c1cccc(Oc2ccc(-c3c(C(F)(F)F)nc4c(C(F)(F)F)cccn34)cc2)c1 [Example 125, 3-{4-[3-(methylsulfonyl)phenoxy]phenyl}-2,8-bis(trifluoromethyl)imidazo[1,2-a]pyridine]
6 | > 1 | CCc1nc2c(C#N)cccn2c1-c1cccc(COc2cccc(S(C)(=O)=O)c2)c1 [Example 110, 2-ethyl-3-(3-{[3-(methylsulfonyl)phenoxy]methyl}phenyl)imidazo[1,2-a]pyridine-8-carbonitrile]
7 | > 1 | CCc1nc2c(Cl)cccn2c1-c1ccc(COc2cccc(S(C)(=O)=O)c2)cc1 [Example 112, 8-chloro-2-ethyl-3-(4-{[3-(methylsulfonyl)phenoxy]methyl}phenyl)imidazo[1,2-a]pyridine]
8 | > 1 | CCc1nc2c(C#N)cccn2c1-c1ccc(Oc2cccc(S(=O)(=O)CC)c2)cc1 [Example 107, 2-ethyl-3-{4-[3-(ethylsulfonyl)phenoxy]phenyl}imidazo[1,2-a]pyridine-8-carbonitrile]
9 | > 1 | CC(C)c1nc2c(C#N)cccn2c1-c1ccc(Oc2cccc(S(C)(=O)=O)c2)cc1 [Example 123, 2-(1-methylethyl)-3-{4-[3-(methylsulfonyl)phenoxy]phenyl}imidazo[1,2-a]pyridine-8-carbonitrile]
10 | 8.33 | CCc1nc2c(C(F)(F)F)cccn2c1-c1ccc(-c2cccc(S(C)(=O)=O)c2)nc1 [Example 87, 2-ethyl-3-{6-[3-(methylsulfonyl)phenyl]pyridin-3-yl}-8-(trifluoromethyl)imidazo[1,2-a]pyridine]
11 | > 1 | CCc1nc2c(C#N)cccn2c1-c1ccc(Oc2cccc(S(C)(=O)=O)c2)cc1 [Example 104, 2-ethyl-3-{4-[3-(methylsulfonyl)phenoxy]phenyl}imidazo[1,2-a]pyridine-8-carbonitrile]

Source: patent US20110112135A1, “Imidazo [1,2-A] Pyridine Compounds” (priority 2007, published 2011)
